Experimental data reported in patent US20150250173A1, “PESTICIDALLY ACTIVE MIXTURES COMPRISING ANTHRANILAMIDE COMPOUNDS” (BASF SE, priority 2012, published 2015).
Like-named read-outs stand apart in the source and are kept apart here.

Columns and labels:
Assay type in all cases: cell-based
Details in all cases: single compound, 7 days
[1] = system: Botrytis cinerea; assay: Activity against the grey mold Botrytis cinerea in the microtiterplate test (Botrci)
[2] = system: Pyricularia oryzae
[3] = system: Phytophthora infestans
[4] = system: Septoria tritici; assay: Activity against leaf blotch on wheat caused by Septoria tritici (Septtr), microtiter plate

## CCCN(CCOc1c(Cl)cc(Cl)cc1Cl)C(=O)n1ccnc1 [Prochloraz]
[1]; 0.016 ppm
  Observed efficacy: 14

## COC(=O)N(OC)c1ccccc1COc1ccn(-c2ccc(Cl)cc2)n1 [Pyraclostrobin]
[2]; 0.004 ppm
  Observed efficacy: 39
[2]; 0.016 ppm
  Observed efficacy: 49
[3]; 0.063 ppm
  Observed efficacy: 10

## CO/N=C(/C1=NOCCO1)c1ccccc1Oc1ncnc(Oc2ccccc2Cl)c1F [Fluoxastrobin]
[4]; 0.25 ppm
  Observed efficacy: 70

## CO/C=C(/C(=O)OC)c1ccccc1Oc1cc(Oc2ccccc2C#N)ncn1 [Azoxystrobin]
[2]; 0.016 ppm
  Observed efficacy: 38

## OC(Cc1ccccc1Cl)(Cn1nc[nH]c1=S)C1(Cl)CC1 (stereo not shown) [Prothioconazol]
[4]; 0.063 ppm
  Observed efficacy: 62

## O=C(Nc1ccccc1-c1ccc(Cl)cc1)c1cccnc1Cl [Boscalid]
[2]; 16 ppm
  Observed efficacy: 10

## Fc1ccc([C@]2(Cn3cncn3)O[C@H]2c2ccccc2Cl)cc1 [Epoxiconazol]
[1]; 0.25 ppm
  Observed efficacy: 59

## CCS(CC)=NC(=O)c1cc(Cl)cc(C)c1NC(=O)c1cc(C(F)(F)F)nn1-c1ncccc1Cl [Compound I-11, 2-(3-chloro-2-pyridyl)-N-[2-methyl-4-chloro-6-[(diethyl-λ^4-sulfanylidene)carbamoyl]phenyl]-5-(trifluoromethyl)pyrazole-3-carboxamide]
[2]; 1 ppm
  Observed efficacy: 0
[2]; 4 ppm
  Observed efficacy: 3
[2]; 63 ppm
  Observed efficacy: 10

## Cc1cc(Cl)cc(C(=O)N=S(C(C)C)C(C)C)c1NC(=O)c1cc(C(F)(F)F)nn1-c1ncccc1Cl [Compound I-21, 2-(3-chloro-2-pyridyl)-N-[2-methyl-4-chloro-6-[(bis-2-propyl-λ^4-sulfanylidene)carbamoyl]phenyl]-5-(trifluoromethyl)pyrazole-3-carboxamide]
[2]; 1 ppm
  Observed efficacy: 0
[2]; 4 ppm
  Observed efficacy: 0
[1]; 4 ppm
  Observed efficacy: 0
[1]; 16 ppm
  Observed efficacy: 4
[4]; 4 ppm
  Observed efficacy: 12

## CO/C=C(/C(=O)OC)c1ccccc1COc1cccc(C(F)(F)F)n1 [Picoxystrobin]
[2]; 0.063 ppm
  Observed efficacy: 72
[4]; 0.063 ppm
  Observed efficacy: 53

## CCS(CC)=NC(=O)c1cc(Cl)cc(Cl)c1NC(=O)c1cc(C(F)(F)F)nn1-c1ncccc1Cl [Compound I-16, 2-(3-chloro-2-pyridyl)-N-[2,4-dichloro-6-[(diethyl-λ^4-sulfanylidene)carbamoyl]phenyl]-5-(trifluoromethyl)pyrazole-3-carboxamide]
[2]; 1 ppm
  Observed efficacy: 3
[2]; 4 ppm
  Observed efficacy: 4
[4]; 4 ppm
  Observed efficacy: 16
[4]; 63 ppm
  Observed efficacy: 17
[3]; 16 ppm
  Observed efficacy: 23

## CON=C(C(=O)OC)c1ccccc1CON=C(C)c1cccc(C(F)(F)F)c1 [Trifloxystrobin]
[2]; 0.016 ppm
  Observed efficacy: 29
[2]; 0.063 ppm
  Observed efficacy: 29
[4]; 0.016 ppm
  Observed efficacy: 62

## Mancozeb
[4]; 4 ppm
  Observed efficacy: 48
